The text below walks through data of paper PMC4288171, “Meclofenamic acid selectively inhibits FTO demethylation of m^6A over ALKBH5” (Nucleic Acids Research, 2014).

The IC50 is the concentration that inhibits the measured activity by half.

The target in this assay is T1, FTO (Homo sapiens, UniProt Q9C0B1).
T1 construct: FTOΔN31 (His-tag human FTO with N-terminal 31 residues truncated)
Briefly: crystal structure at […] Å; DSF shift; FP displacement (IC50 […]); IC50 from HPLC demethylation assay on ssDNA. The assay is classed as biochemical.

T1 sequence (Q9C0B1 32-505): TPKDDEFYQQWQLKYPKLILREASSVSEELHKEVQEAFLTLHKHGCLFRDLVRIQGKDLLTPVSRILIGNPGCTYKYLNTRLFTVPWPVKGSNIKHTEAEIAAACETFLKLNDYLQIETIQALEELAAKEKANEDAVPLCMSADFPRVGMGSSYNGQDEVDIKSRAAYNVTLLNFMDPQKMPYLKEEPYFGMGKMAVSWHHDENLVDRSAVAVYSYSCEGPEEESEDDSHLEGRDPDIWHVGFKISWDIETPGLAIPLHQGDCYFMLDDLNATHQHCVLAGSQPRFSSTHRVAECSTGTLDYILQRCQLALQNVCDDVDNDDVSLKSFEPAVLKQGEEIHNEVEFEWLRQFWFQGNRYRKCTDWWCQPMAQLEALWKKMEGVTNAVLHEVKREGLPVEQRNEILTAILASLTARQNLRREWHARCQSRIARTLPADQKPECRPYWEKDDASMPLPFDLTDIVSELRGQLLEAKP

As for `Cc1ccc(Cl)c(Nc2ccccc2C(=O)O)c1Cl` [MA, meclofenamic acid], the IC50 turned out to be 7 µM.
